One test concerns SUM149PT cells. Briefly: cells. In kind it is cell-based, human. The settings on record: for activity / IC50 as compared with the wt iPep624: Cell Titer Glo. The source says: The EN1-iPeps and iPep controls were first tested in SUM149PT cells carrying high EN1 expression. Cells were first treated with a full-length 29-mer peptide (iPep624) comprising the N-terminal, less conserved amino acid sequences, the hexamotif, and the C-terminal tail. As a control, the inventors generated the iPep624ΔHEX in which the hexamotif was mutated from the wild type (wt) WPAWVY (SEQ ID NO: 13) to the GAAGAG (SEQ ID NO: 15) sequence. These mutations were expected to dramatically abolish the activity of the peptide. Both peptides were included in the culture medium of the basal cancer cells in increasing (0-100 μM) concentrations and incubated for 8 hours at 37° C. Treated cells were first analyzed using the Cell Titer Glo assay, which monitors metabolic viability. […] This calculated value of IC50 is in the range of concentrations observed with other peptides delivered with CPPs.
(§1) All peptides were synthetized at the UNC High-Throughput Peptide Synthesis and Array Facility at UNC. Taxol, Rotenone and Halofuginone (Sigma-Aldrich, St Louis, Mo.) were dissolved in DMSO. A total of […] or 1×10^3 breast cells for peptide and drug treatment respectively, were seeded in 96-well plates. Cells were exposed for 8 hours to the peptide and 48 to 72 hours for drug treatment. The cell viability after peptide/drug treatment was assayed with the Cell Titer Glo (CTG) assay (Promega, Madison, Wis., USA).

Test [1] concerns SUM149PT control (EGFP) transduced cells (SUM149PT-Control). The test can be described thus: Cell Titer Glo cell viability assay in control transduced SUM149PT cells. In kind it is cell-based. The settings on record: Homo sapiens. The protocol: (§2) In the neural system it has been proposed that EN1 protects neurons from mitochondrial complex I insults. Likewise, the inventors investigated whether EN1 could play a similar role in the basal-like breast cancer cell lines. The EN1 cDNA was overexpressed in SUM149PT cells using a lentiviral vector, and the transduced cells were treated with increasing concentrations of rotenone, a mitochondrial complex I toxin, and taxol, a […].
(§3) Plasmids expressing the EN1 cDNA (Genecopoeia, vector EX-T1021-Lv07) or EN1 shRNAs (Open Biosystems, pLKO-EN1) were transfected with Gagpol-, VSVG-, and RSV-REV-coding plasmids in HEK 293T cells using Lipofectamine and Plus Reagent cationic lipids (Invitrogen, Carlsbad, Calif.) and transduction of breast cells was performed as described in Beltran, A. S. et al. Breast Cancer Res 13, R94 (2011).
as §1

In test [2] the test system is SUM149PT cells overexpressing the EN1 cDNA (SUM149PT-EN1). Briefly: Cell Titer Glo cell viability assay in SUM149PT cells overexpressing the EN1 cDNA. In kind it is cell-based, human. The settings on record: Homo sapiens. The protocol:
as §2, §3, §1

The subject of test [3] is panel of breast cancer cell lines. The test can be described thus: Cell Titer Glo cell viability assay, whole panel of breast cancer cell lines. As to conditions: maximum tested concentrations (100 μM), 8 hours. In kind it is cell-based. The protocol: To test the specificity of the EN1-iPep in cell lines expressing EN1, the inventors delivered the iPeps into a panel of breast cancer cell lines expressing different amounts of EN1.
as §1

The mark [4] stands for this setting: Homo sapiens, SUM149PT, 48 hours drug and 8 hours 500 nM iPep682, read-out: IC50 of drug with iPep682.
Setting [5] is: Homo sapiens, SUM149PT, 48 hours of treatment, read-out: IC50 of drug alone.
The mark [6] stands for this setting: SUM149PT, drug treatment 72 hours, read-out: IC50 (cell viability), control transduced cells.
Where [7] appears, read: SUM149PT, drug treatment 72 hours, read-out: IC50 (cell viability), EN1 cDNA transduced cells.

Like-named read-outs stand apart in the source and are kept apart here. Ends that are not written are not given here.

The source of these data is patent US10201610B2, “Interference peptides and use thereof” (The University of Western Australia, priority 2014, dated 2019).

For `O=c1[nH]cc(F)c(=O)[nH]1` [5-FU, 5-Fluorouracil, reference compound], the IC50 in the test with SUM149PT cells (setting [4]) stood at 29.5 µM; in the test with SUM149PT cells (setting [5]), 610 µM.
On to `O=C(CC1NCCCC1O)Cn1cnc2cc(Br)c(Cl)cc2c1=O` (centres unmarked) [halofuginone], for which the IC50 in test [1] (SUM149PT-Control cells, 500 nM iPep, 48 hours, read-out: IC50 of halofuginone in combination with iPep624) came to 0.041 nM; in test [2] (SUM149PT-EN1 cells, 500 nM iPep, 48 hours, read-out: IC50 of halofuginone in combination with iPep624), 0.00049 µM. Besides, the “breast cancer cell death” value in the test with SUM149PT cells (SUM149PT, single agent) is on record as “induced very potent breast cancer cell death”.
`C=C(C)[C@H]1Cc2c(ccc3c2O[C@@H]2COc4cc(OC)c(OC)cc4[C@@H]2C3=O)O1` [rotenone]: the results for the IC50 in test [1] (setting [6]) and in test [2] (setting [7]) were 1080 nM and 19.6 µM, respectively.
Take `CC(=O)O[C@H]1C(=O)[C@@]2(C)[C@H]([C@H](OC(=O)c3ccccc3)[C@]3(O)C[C@H](OC(=O)[C@H](O)[C@@H](NC(=O)c4ccccc4)c4ccccc4)C(C)=C1C3(C)C)[C@]1(OC(C)=O)CO[C@@H]1C[C@@H]2O` [taxol, reference compound]: the IC50 in test [1] (setting [6]) came to 7240 nM; in the test with SUM149PT cells (setting [4]), 0.049 µM; with SUM149PT cells (setting [5]) it was 7.6 µM; in test [2] (setting [7]), 47.8 µM.
As to KKKRKVPLVWPAWVYCTRYSDRPS [iPep682], 12.5 µM corresponded to half-maximal inhibition in the test with SUM149PT cells (8 h) (IC50).
Take “KKKRKVTDSQQPLVAPAWVYCTRYSDRPS (SEQ ID NO: 20) (engineered from homo sapiens) [iPep624W1ΔA, first tryptophan mutated to alanine]”: in the test with SUM149PT cells (SUM149PT), the “activity / IC50 as compared with the wt iPep624” value is on record as “retained activity but significantly increased the IC50”.
Take “KKKRKVTDSQQPLVGAAGAGCTRYSDRPS (SEQ ID NO: 18) (engineered from homo sapiens) [iPep624ΔHEX]”: the cell viability entry with SUM149PT cells (SUM149PT, 0-100 μM peptide, 8 hours) is “did not show significant changes in cell viability”. Moreover, the “cell viability of any of the breast cancer cell lines” value in test [3] is on record as “did not significantly affect cell viability”.
Take “KKKRKVTDSQQPLVWPAAVYCTRYSDRPS (SEQ ID NO: 19) (engineered from homo sapiens) [iPep624W2ΔA, second tryptophan mutated to alanine]”: the “activity / IC50 as compared with the wt iPep624” value with SUM149PT cells (SUM149PT) is “retained activity but significantly increased the IC50”.
The same measure, in the same setting: the entry for “KKKRKVWPAWVYCTRYSDR (SEQ ID NO: 22) (homo sapiens) [iPep697, peptide lacking all the N-terminal residues upstream of the hexamotif]” is “less active”.
